The record followed here is PubChem BioAssay AID280 (DTP/NCI, 2004).

Where “and” joins values, the source holds several entries; their conditions need not be identical. Equal values may be shown once. Toxic doses and inconclusive results are not listed.

For the assay, the system named is nude mice, LOX melanoma ip, survival T/C. In words: NCI In Vivo Anticancer Drug Screen. Data for tumor model Human Amelanotic Melanoma (LOX) (intraperitoneal) in NU/NU BALB/C (nude) mice. The note with it: endpoint: median survival time, higher = longer survival. The method, then:
The antitumor activity of compounds was measured in mice bearing transplantable tumors. Survival or tumor size were measured and the results are expressed as the measurement made in the treated group (T) divided by the measurement made in the vehicle treated control group (C). The tumor model used in this assay is Human Amelanotic Melanoma (LOX) (intraperitoneal) in NU/NU BALB/C (nude) mice

Setting [1] is: dose: 75.0 mg/kg/injection, schedule: Q04DX003 (ip), vehicle: saline with Tween-80.
The mark [2] stands for this setting: dose: 150.0 mg/kg/injection, schedule: Q04DX003 (ip), vehicle: saline with Tween-80.
[3] abbreviates: dose: 300.0 mg/kg/injection, schedule: Q04DX003 (ip), vehicle: saline with Tween-80.
The mark [4] stands for this setting: dose: 600.0 mg/kg/injection, schedule: Q04DX003 (ip), vehicle: saline with Tween-80.

As for `O=NNc1cnccn1`, the T/C is, setting by setting: (dose: 11.3 mg/kg/injection, schedule: Q01DX009 (ip), vehicle: other) 110 % of control; (dose: 11.3 mg/kg/injection, schedule: Q03HX008 (ip), vehicle: other) 117 % of control; (dose: 12.5 mg/kg/injection, schedule: Q04DX003 (ip), vehicle: water) 110 % of control; (dose: 16.9 mg/kg/injection, schedule: Q01DX005 (iv), vehicle: other) 97 % of control; (dose: 16.9 mg/kg/injection, schedule: Q01DX009 (ip), vehicle: other) 153 % of control; (dose: 25.3 mg/kg/injection, schedule: Q01DX009 (ip), vehicle: other) 175 % of control. The T/C (dose: 25.3 mg/kg/injection, schedule: Q03HX008 (ip), vehicle: other) was 159 % of control; the T/C (dose: 29.7 mg/kg/injection, schedule: Q04DX003 (ip), vehicle: water) was 201 % of control; the T/C (dose: 38.0 mg/kg/injection, schedule: Q01DX005 (iv), vehicle: other) was 153 % of control; the T/C (dose: 38.0 mg/kg/injection, schedule: Q01DX009 (ip), vehicle: other) was 189 % of control; the T/C (dose: 38.0 mg/kg/injection, schedule: Q04DX003 (iv), vehicle: other) was 123 % of control; the T/C (dose: 44.5 mg/kg/injection, schedule: Q04DX003 (ip), vehicle: water) was 180 % of control and 189 % of control. Also, the T/C by setting is: (dose: 50.0 mg/kg/injection, schedule: Q04DX003 (ip), vehicle: water) 156 % of control; (dose: 57.0 mg/kg/injection, schedule: Q01DX001 (ip), vehicle: other) 116 % of control; (dose: 57.0 mg/kg/injection, schedule: Q01DX001 (iv), vehicle: other) 115 % of control; (dose: 57.0 mg/kg/injection, schedule: Q01DX005 (iv), vehicle: other) 191 % of control; (dose: 57.0 mg/kg/injection, schedule: Q01DX009 (ip), vehicle: other) 220 % of control; (dose: 57.0 mg/kg/injection, schedule: Q04DX003 (ip), vehicle: other) 170 % of control. The T/C (dose: 57.0 mg/kg/injection, schedule: Q04DX003 (iv), vehicle: other) is 154 % of control; the T/C (dose: 66.7 mg/kg/injection, schedule: Q04DX003 (ip), vehicle: water) is 200 % of control and 221 % of control; the T/C (dose: 85.4 mg/kg/injection, schedule: Q01DX001 (iv), vehicle: other) was 120 % of control; the T/C (dose: 85.4 mg/kg/injection, schedule: Q04DX003 (ip), vehicle: other) is 185 % of control; the T/C (dose: 85.4 mg/kg/injection, schedule: Q04DX003 (iv), vehicle: other) was 159 % of control; the T/C (dose: 85.4 mg/kg/injection, schedule: Q08DX002 (ip), vehicle: other) is 150 % of control. The T/C runs as follows: (dose: 100.0 mg/kg/injection, schedule: Q04DX003 (ip), vehicle: water) 232 % of control and 250 % of control and 301 % of control; (dose: 128.0 mg/kg/injection, schedule: Q01DX001 (ip), vehicle: other) 170 % of control; (dose: 128.0 mg/kg/injection, schedule: Q04DX003 (ip), vehicle: other) 170 % of control; (dose: 128.0 mg/kg/injection, schedule: Q04DX003 (iv), vehicle: other) 91 % of control; (dose: 128.0 mg/kg/injection, schedule: Q08DX002 (ip), vehicle: other) 180 % of control; (dose: 150.0 mg/kg/injection, schedule: Q04DX003 (ip), vehicle: water) 248 % of control and 296 % of control. Besides, the T/C is 180 % of control (dose: 192.0 mg/kg/injection, schedule: Q01DX001 (ip), vehicle: other); 300 % of control (dose: 192.0 mg/kg/injection, schedule: Q08DX002 (ip), vehicle: other); 121 % of control (dose: 200.0 mg/kg/injection, schedule: Q04DX003 (ip), vehicle: water).
Consider `CNC(=S)SC1=NS(=O)(=O)c2ccccc2N1`, for which the T/C is 100 % of control (dose: 50.0 mg/kg/injection, schedule: Q04DX003 (ip), vehicle: Klucel (hydroxypropylcellulose) (HPC)); 104 % of control (dose: 100.0 mg/kg/injection, schedule: Q04DX003 (ip), vehicle: Klucel (hydroxypropylcellulose) (HPC)); 104 % of control (dose: 200.0 mg/kg/injection, schedule: Q04DX003 (ip), vehicle: Klucel (hydroxypropylcellulose) (HPC)).
Turning to `CCCCCCSc1nc(COC(=O)NC)c(COC(=O)NC)n1C`, the T/C is, setting by setting: (dose: 16.85 mg/kg/injection, schedule: Q04DX003 (ip), vehicle: saline) 102 % of control; (dose: 33.7 mg/kg/injection, schedule: Q04DX003 (ip), vehicle: saline) 90 % of control; (dose: 67.5 mg/kg/injection, schedule: Q04DX003 (ip), vehicle: saline) 93 % of control; (dose: 135.0 mg/kg/injection, schedule: Q04DX003 (ip), vehicle: saline) 107 % of control; (dose: 270.0 mg/kg/injection, schedule: Q04DX003 (ip), vehicle: saline) 123 % of control.
Regarding `COc1cc(C(=O)N/N=C/c2cccc([N+](=O)[O-])c2)cc(OC)c1OC`, the T/C was 98 % of control (dose: 37.5 mg/kg/injection, schedule: Q04DX003 (ip), vehicle: saline with Tween-80); 101 % of control and 96 % of control under setting [1]; 104 % of control and 105 % of control under setting [2]; 98 % of control under setting [3]; 105 % of control and 98 % of control under setting [4]; 114 % of control (dose: 1200.0 mg/kg/injection, schedule: Q04DX003 (ip), vehicle: saline with Tween-80).
`COc1cc2cc(c1Cl)N(C)C(=O)C[C@H](OC(=O)[C@H](C)N(C)C(C)=O)[C@]1(C)O[C@H]1[C@H](C)[C@@H]1C[C@@](O)(NC(=O)O1)[C@H](OC)C=C/C=C(\C)C2`: the T/C reads like this: (dose: 0.07 mg/kg/injection, schedule: Q04DX003 (ip), vehicle: Klucel (hydroxypropylcellulose) (HPC)) 304 % of control; (dose: 0.12 mg/kg/injection, schedule: Q04DX003 (ip), vehicle: Klucel (hydroxypropylcellulose) (HPC)) 304 % of control; (dose: 0.2 mg/kg/injection, schedule: Q04DX003 (ip), vehicle: Klucel (hydroxypropylcellulose) (HPC)) 304 % of control and 323 % of control; (dose: 0.33 mg/kg/injection, schedule: Q04DX003 (ip), vehicle: Klucel (hydroxypropylcellulose) (HPC)) 304 % of control; (dose: 0.4 mg/kg/injection, schedule: Q04DX003 (ip), vehicle: Klucel (hydroxypropylcellulose) (HPC)) 95 % of control; (dose: 0.56 mg/kg/injection, schedule: Q04DX003 (ip), vehicle: Klucel (hydroxypropylcellulose) (HPC)) 304 % of control.
For the compound `O=C(Nc1cccc(Cl)c1)ON1C(=O)C2C(C1=O)C1(Cl)C(Cl)C(Cl)C2(Cl)C1(Cl)Cl` (centres undefined), the T/C is 99 % of control under setting [1], 86 % of control under setting [2], 90 % of control under setting [3] and 101 % of control under setting [4].
`O=C(CCCN1CCC(C(O)c2ccc(F)cc2)CC1)c1ccc(F)cc1` (centres undefined): the T/C runs as follows: (dose: 6.25 mg/kg/injection, schedule: Q01DX009 (ip), vehicle: saline with Tween-80) 95 % of control; (dose: 12.5 mg/kg/injection, schedule: Q01DX009 (ip), vehicle: saline with Tween-80) 107 % of control; (dose: 12.5 mg/kg/injection, schedule: Q01DX009 (oral), vehicle: saline with Tween-80) 109 % of control; (dose: 25.0 mg/kg/injection, schedule: Q01DX009 (ip), vehicle: saline with Tween-80) 101 % of control; (dose: 25.0 mg/kg/injection, schedule: Q01DX009 (oral), vehicle: saline with Tween-80) 99 % of control; (dose: 50.0 mg/kg/injection, schedule: Q01DX009 (ip), vehicle: saline with Tween-80) 115 % of control. Moreover, the T/C was 107 % of control (dose: 50.0 mg/kg/injection, schedule: Q01DX009 (oral), vehicle: saline with Tween-80) and 107 % of control (dose: 100.0 mg/kg/injection, schedule: Q01DX009 (oral), vehicle: saline with Tween-80).
With `NC(=S=O)C(N)=S=O`, the T/C runs as follows: (dose: 62.5 mg/kg/injection, schedule: Q04DX003 (ip), vehicle: saline with Tween-80) 109 % of control; (dose: 125.0 mg/kg/injection, schedule: Q04DX003 (ip), vehicle: saline with Tween-80) 105 % of control; (dose: 250.0 mg/kg/injection, schedule: Q04DX003 (ip), vehicle: saline with Tween-80) 105 % of control; (dose: 500.0 mg/kg/injection, schedule: Q04DX003 (ip), vehicle: saline with Tween-80) 105 % of control.
